From ChEMBL document CHEMBL1133459, “Adenosine kinase inhibitors. 1. Synthesis, enzyme inhibition, and antiseizure activity of 5-iodotubercidin analogues” (J Med Chem, 2000)

These compounds were tested against Adenosine kinase (Homo sapiens, UniProt P55263) (assay: Inhibition of recombinant human adenosine kinase).
Adenosine kinase, sequence (P55263 whole entry): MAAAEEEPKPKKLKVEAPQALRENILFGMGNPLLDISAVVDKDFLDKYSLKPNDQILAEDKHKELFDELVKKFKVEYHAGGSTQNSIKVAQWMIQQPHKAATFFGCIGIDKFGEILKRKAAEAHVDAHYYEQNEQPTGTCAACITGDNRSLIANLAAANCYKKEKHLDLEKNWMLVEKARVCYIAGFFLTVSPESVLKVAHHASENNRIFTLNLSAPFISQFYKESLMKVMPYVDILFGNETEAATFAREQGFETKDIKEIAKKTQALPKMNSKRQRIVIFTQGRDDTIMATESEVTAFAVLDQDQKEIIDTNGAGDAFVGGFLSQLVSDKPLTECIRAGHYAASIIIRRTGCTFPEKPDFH

Row | Compound | IC50 [nM]
1 | NC[C@H]1O[C@@H](n2cnc3c(N)ncnc32)[C@H](O)[C@@H]1O | 170
2 | [N-]=[N+]=NC[C@H]1O[C@@H](n2cc(I)c3c(N)ncnc32)[C@H](O)[C@@H]1O | 35
3 | CNc1ncnc2c1c(I)cn2[C@@H]1O[C@H](CO)[C@@H](O)[C@H]1O | 1200
4 | OC[C@H]1O[C@@H](n2cc(I)c3c(Cl)ncnc32)[C@H](O)[C@@H]1O | 24
5 | NC[C@H]1O[C@@H](n2cc(I)c3c(Cl)ncnc32)[C@H](O)[C@@H]1O | 0.1
6 | C[C@H]1O[C@@H](n2cc(I)c3c(SCc4ccccc4)ncnc32)[C@H](O)[C@@H]1O | 1000
7 | [N-]=[N+]=NC[C@H]1O[C@@H](n2cc(I)c3c(Cl)ncnc32)[C@H](O)[C@@H]1O | 9
8 | Nc1ncnc2c1c(Br)cn2[C@@H]1O[C@H](CO)[C@@H](O)[C@H]1O | 120
9 | C[C@H]1O[C@@H](n2cc(I)c3c(SCc4ccc([N+](=O)[O-])cc4)ncnc32)[C@H](O)[C@@H]1O | 2000
10 | CC[C@H]1O[C@@H](n2cc(Br)c3c(N)ncnc32)[C@H](O)[C@@H]1O | 500
11 | [N-]=[N+]=NC[C@H]1O[C@@H](n2cc(Br)c3c(N)ncnc32)[C@H](O)[C@@H]1O | 63
12 | NC[C@H]1O[C@@H](n2ccc3c(N)ncnc32)[C@H](O)[C@@H]1O | 13000
13 | Nc1ncnc2c1c(Cl)cn2[C@@H]1O[C@H](CO)[C@@H](O)[C@H]1O | 210
14 | [N-]=[N+]=NC[C@H]1O[C@@H](n2cc(Br)c3c(Cl)ncnc32)[C@H](O)[C@@H]1O | 100
15 | C[C@H]1O[C@@H](n2cc(C#N)c3c(N)ncnc32)[C@H](O)[C@@H]1O | 310
16 | NC[C@H]1O[C@@H](n2cc(Br)c3c(N)ncnc32)[C@H](O)[C@@H]1O | 0.2
17 | N#Cc1cn([C@@H]2O[C@H](CO)[C@@H](O)[C@H]2O)c2ncnc(N)c12 [TOYOCAMYCIN] | 310
18 | Nc1ncnc2c1ccn2[C@@H]1O[C@H](CO)[C@@H](O)[C@H]1O [TUBERCIDIN] | 10000

The next lines start with the values.

Row | IC50 [nM] | Compound
19 | 1350 | CSc1cn([C@@H]2O[C@H](C)[C@@H](O)[C@H]2O)c2ncnc(N)c12
20 | 70 | CSc1cn([C@@H]2O[C@H](C)[C@@H](O)[C@H]2O)c2ncnc(Cl)c12
21 | 1200 | COC[C@H]1O[C@@H](n2cc(I)c3c(N)ncnc32)[C@H](O)[C@@H]1O
22 | 0.6 | NC[C@H]1O[C@@H](n2cc(I)c3c(N)ncnc32)[C@H](O)[C@@H]1O
23 | 3 | C[C@H]1O[C@@H](n2cc(I)c3c(Cl)ncnc32)[C@H](O)[C@@H]1O
24 | 6500 | C[C@H]1O[C@@H](n2cc(I)c3c(=S)[nH]cnc32)[C@H](O)[C@@H]1O
25 | 1000 | CCCCSc1ncnc2c1c(I)cn2[C@@H]1O[C@H](C)[C@@H](O)[C@H]1O
26 | 45 | CSc1ncnc2c1c(I)cn2[C@@H]1O[C@H](C)[C@@H](O)[C@H]1O
27 | 2800 | C=CCSc1ncnc2c1c(I)cn2[C@@H]1O[C@H](C)[C@@H](O)[C@H]1O
28 | 60 | CC[C@H]1O[C@@H](n2cc(I)c3c(N)ncnc32)[C@H](O)[C@@H]1O
29 | 100 | C=C[C@H]1O[C@@H](n2cc(I)c3c(N)ncnc32)[C@H](O)[C@@H]1O
30 | 50 | C[C@H]1O[C@@H](n2cc(Br)c3c(Cl)ncnc32)[C@H](O)[C@@H]1O
31 | 535 | Cc1cn([C@@H]2O[C@H](C)[C@@H](O)[C@H]2O)c2ncnc(Cl)c12

Organism: Rattus norvegicus
Test: Evaluated for antiseizure activity in rat maximal electric shock (MES) seizure model and represented as ED50.
Type: functional

Row | Compound | ED50 [mg/kg]
32 | NC[C@H]1O[C@@H](n2cc(I)c3c(N)ncnc32)[C@H](O)[C@@H]1O | 7.1
33 | C[C@H]1O[C@@H](n2cc(Br)c3c(N)ncnc32)[C@H](O)[C@@H]1O | < 3.7
34 | NC[C@H]1O[C@@H](n2cc(Br)c3c(N)ncnc32)[C@H](O)[C@@H]1O | 4.2
35 | C[C@H]1O[C@@H](n2cc(I)c3c(N)ncnc32)[C@H](O)[C@@H]1O [5-IODO,5'-DEOXYTUBERCIDIN] | 0.3
36 | Nc1ncnc2c1c(I)cn2[C@@H]1O[C@H](CO)[C@@H](O)[C@H]1O [IODOTUBERCIDIN] | 6
